According to patent US7622480B2, “Azaindolylpiperidine derivatives as antihistaminic and antiallergic agents” (Laboratorios Almirall S.A., priority 2002, dated 2009):

What was measured:
[1] = biological target: T1, histamine H1 receptor (Cavia porcellus, UniProt P31389); experiment: Histamine-H1 receptor binding assay; settings: guinea pig cerebellum membranes, 0.7 nM [3H]-mepyramine, 30 min at 30° C.
T1 construct: performed in guinea pig cerebellum membranes as described previously; from tissue; host or cells: guinea pig cerebellum membranes
Experimental: (1) In vitro histamine H1 receptor binding assay, to measure the affinity of the compounds. […] Briefly, the membrane suspensions (160 μg/ml) were incubated at 30° C. with 0.7 nM [^3H]-mepyramine and different concentrations of the test compounds in a final volume of 250 μl. Binding reactions were terminated by filtration after 30 min of incubation and the bound radioactivity was determined. The non-specific binding was measured in the presence of 10 μM of promethazine. The affinity of each test compound to the receptor was determined by using at least six different concentrations run in duplicate. IC50 values were obtained by non-linear regression by use of SAS on a DEC AXP computer.

[2] = system: Histamine-induced skin vascular permeability in rats; experiment: Histamine-induced skin vascular permeability in rats; assay type: in vivo; settings: Rattus norvegicus, 4 h; Male Wistar rats, oral, dose of 3 mg/Kg, four hours after administration, compared with vehicle treated group
Experimental: Either one, four, eight or 24 hours later the rats were lightly anaesthetized with ether and a cutaneous reaction was induced by two intradermal injections of 50 μl of histamine (100 μg/ml) onto the back, followed by a intravenous injection of 3 ml/kg of Evan's Blue (5 mg/ml), both dissolved in saline. Sixty minutes later, the rats were killed by cervical dislocation and the back skin dissected free. The diameter (in millimetres) of the papule was measured in two directions and the area was calculated.

T1 sequence (P31389 whole entry): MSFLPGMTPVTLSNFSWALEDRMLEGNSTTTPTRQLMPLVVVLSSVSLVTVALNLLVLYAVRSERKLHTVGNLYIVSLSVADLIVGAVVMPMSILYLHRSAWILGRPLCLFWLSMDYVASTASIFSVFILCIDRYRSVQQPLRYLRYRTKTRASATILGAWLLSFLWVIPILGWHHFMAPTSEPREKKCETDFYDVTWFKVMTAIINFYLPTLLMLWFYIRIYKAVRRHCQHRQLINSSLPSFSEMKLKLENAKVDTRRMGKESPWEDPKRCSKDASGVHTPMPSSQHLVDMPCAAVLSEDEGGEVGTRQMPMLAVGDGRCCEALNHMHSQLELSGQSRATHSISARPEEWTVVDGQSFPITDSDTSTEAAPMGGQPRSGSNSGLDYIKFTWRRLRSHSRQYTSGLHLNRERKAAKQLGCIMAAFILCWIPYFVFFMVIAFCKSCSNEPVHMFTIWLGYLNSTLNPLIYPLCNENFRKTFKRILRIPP

IC50 [1] | melting point | Compound | inhibition in vivo at 3 mg/kg [2]
235 nM |  | CCCCn1cc(C2CCN(CCOc3ccccc3C(=O)O)CC2)c2cccnc21 [Example 25, 2-{2-[4-(1-butyl-1H-pyrrolo[2,3-b]pyridin-3-yl)piperidin-1-yl]-ethoxy}-benzoic acid] | > 50%
160 nM |  | CCOCCn1cc(C2CCN(CCOc3cc(OC)ccc3C(=O)O)CC2)c2cccnc21 [Example 36, 2-(2-{4-[1-(2-ethoxyethyl)-1H-pyrrolo[2,3-b]pyridin-3-yl]-piperidin-1-yl}-ethoxy)-4-methoxybenzoic acid] | > 50%
70 nM | 81.6 to 83.3 °C | O=C(O)c1ccc(Cl)cc1OCCN1CCC(c2cn(Cc3ccoc3)c3ncccc23)CC1 [Example 44, 4-chloro-2-{2-[4-(1-furan-3-ylmethyl-1H-pyrrolo[2,3-b]pyridin-3-yl)-piperidin-1-yl]-ethoxy}-benzoic acid] | > 50%
100 nM |  | CCCCn1cc(C2CCN(CCOc3cc(OC)ccc3C(=O)O)CC2)c2cccnc21 [Example 61, 2-{2-[4-(1-butyl-1H-pyrrolo[2,3-b]pyridin-3-yl)piperidin-1-yl]-ethoxy}-4-methoxybenzoic acid] | > 50%
